Experimental data reported in patent publication US11033547B2, “Carboxamide-pyrimidine derivatives as SHP2 antagonists” (Merck Patent GmbH, priority 2019, dated 2021).
Counter-ions that a name gives are not always drawn.

Target: Full length SHP2 protein (Recombinant Human SHP-2) (Homo sapiens, UniProt Q06124)
Test: SHP2 biochemical assay (DiFMUP substrate, activating peptide IRSI_2pY)
Settings: DiFMUP substrate, activating peptide IRSI_2pY, 60 min at RT; read-out: SHP-2 Biochemical assay IC50
Procedure: The inhibition of SHP2 by compounds of the invention was monitored using the surrogate substrate DiFMUP after protein activation by a peptide bearing two appropriately spaced phosphotyrosine. […] The generation of the DiFMU product by activated SHP2 was monitored through Fluorescence measurement with a PerkinElmer Envision reader.
The inhibitor dose response curves were analyzed with Genedata Screener.

Sequence of Full length SHP2 protein (Recombinant Human SHP-2) (Q06124 2-593 limits assumed): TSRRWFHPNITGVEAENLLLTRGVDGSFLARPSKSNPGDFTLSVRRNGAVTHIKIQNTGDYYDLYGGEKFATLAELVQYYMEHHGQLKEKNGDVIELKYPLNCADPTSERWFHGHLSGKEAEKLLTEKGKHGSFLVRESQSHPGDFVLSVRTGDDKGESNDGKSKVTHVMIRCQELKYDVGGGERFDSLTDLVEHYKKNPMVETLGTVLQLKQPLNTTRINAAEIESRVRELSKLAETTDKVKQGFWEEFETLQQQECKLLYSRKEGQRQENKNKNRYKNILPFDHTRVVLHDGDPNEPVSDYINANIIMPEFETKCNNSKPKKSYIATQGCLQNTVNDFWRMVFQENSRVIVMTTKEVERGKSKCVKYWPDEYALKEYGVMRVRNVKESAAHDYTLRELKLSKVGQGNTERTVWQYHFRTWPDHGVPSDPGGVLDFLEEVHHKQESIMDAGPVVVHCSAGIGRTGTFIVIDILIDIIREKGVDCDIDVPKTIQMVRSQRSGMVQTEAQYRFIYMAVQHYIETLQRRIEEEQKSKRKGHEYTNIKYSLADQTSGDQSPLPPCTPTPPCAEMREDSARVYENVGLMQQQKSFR

Row | SMILES | IC50 [µM]
1 | Cc1nc(N2CCC3(CCC[C@@H]3N)C2)nc(C(N)=O)c1-c1cccc(Cl)c1Cl (stereo in doubt) [Compound 37, 2-((S)-6-Amino-2-aza-spiro[4.4]non-2-yl)-5-(2,3-dichloro-phenyl)-6-methyl-pyrimidine-4-carboxylic acid amide] | 1.1
2 | CC1(N)CCN(c2nc(N)c(-c3cccc(F)c3)c(C(N)=O)n2)CC1 [Compound 4, 6-Amino-2-(4-amino-4-methyl-piperidin-1-yl)-5-(3-fluoro-phenyl)pyrimidine-4-carboxylic Acid Amide] | 3.7
3 | CC(C)C1N(c2nc(N)c(-c3cccc(Cl)c3Cl)c(C(N)=O)n2)CC12CC(N)C(O)C2 (centres unmarked) [Compound 10, 6-amino-2-[6-amino-7-hydroxy-1-(propan-2-yl)-2-azaspiro[3.4]octan-2-yl]-5-(2,3-dichlorophenyl)pyrimidine-4-carboxamide] | 9.6
4 | NCC1CC2CCC(C1)N2c1nc(N)c(-c2cccc(Cl)c2Cl)c(C(N)=O)n1 (centres unmarked) [Compound 12, 6-amino-2-[3-(aminomethyl)-8-azabicyclo[3.2.1]octan-8-yl]-5-(2,3-dichlorophenyl)pyrimidine-4-carboxamide] | 1.6
5 | CC1(N)CCN(c2nc(N)c(-c3cccc(Cl)c3Cl)c(C(=O)NCCO)n2)CC1 [Compound 17, 6-Amino-2-(4-amino-4-methyl-piperidin-1-yl)-5-(2,3-dichlorophenyl)-pyrimidine-4-carboxylic acid (2-hydroxy-ethyl)-amide] | 12
6 | CC1(N)CCN(c2nc(Cl)c(-c3cccc(F)c3)c(C(N)=O)n2)CC1 [Compound 19, 2-(4-Amino-4-methyl-piperidin-1-yl)-6-chloro-5-(3-fluorophenyl)-pyrimidine-4-carboxylic Acid Amide] | 87
7 | CC1(N)CCN(c2nc(N)c(-c3cccc(Cl)c3Cl)c(C(=O)NN)n2)CC1 [Compound 21, 6-Amino-2-(4-amino-4-methyl-piperidin-1-yl)-5-(2,3-dichlorophenyl)-pyrimidine-4-carboxylic Acid Hydrazide] | 1.6
8 | CC1(N)CCN(c2nc(F)c(-c3cccc(F)c3)c(C(N)=O)n2)CC1 [Compound 22, 2-(4-Amino-4-methyl-piperidin-1-yl)-6-fluoro-5-(3-fluorophenyl)-pyrimidine-4-carboxylic Acid Amide] | 21
9 | Cc1nc(N2C3COCC2CC(N)C3)nc(C(N)=O)c1-c1cccc(Cl)c1Cl (centres unmarked) [Compound 33, 2-(7-Amino-3-oxa-9-aza-bicyclo[3.3.1]non-9-yl)-5-(2,3-dichlorophenyl)-6-methyl-pyrimidine-4-carboxylic acid amide] | 2.4
10 | NCC1CN(c2nc(N)c(-c3cccc(Cl)c3Cl)c(C(N)=O)n2)CC12COC2 (centres unmarked) [Compound 34, 6-amino-2-[8-(aminomethyl)-2-oxa-6-azaspiro[3.4]octan-6-yl]-5-(2,3-dichloro-phenyl)pyrimidine-4-carboxamide] | 1.1
11 | Cc1nc(NC2CCC(CN)C2)nc(C(N)=O)c1-c1cccc(Cl)c1Cl (centres unmarked) [Compound 36, 2-(3-Aminomethyl-cyclopentylamino)-5-(2,3-dichloro-phenyl)-6-methyl-pyrimidine-4-carboxylic acid amide] | 13
12 | NC(=O)c1nc(N2CCC(C3OCCCC3N)CC2)nc(N)c1-c1cccc(Cl)c1Cl (centres unmarked) [Compound 39, 6-amino-2-[4-(3-aminooxan-2-yl)piperidin-1-yl]-5-(2,3-dichlorophenyl)pyrimidine-4-carboxamide] | 6.3
13 | Cc1nc(N2CC(F)(CN)C2)nc(C(N)=O)c1-c1cccc(Cl)c1Cl [Compound 44, 2-(3-Aminomethyl-3-fluoro-azetidin-1-yl)-5-(2,3-dichloro-phenyl)-6-methyl-pyrimidine-4-carboxylic acid amide] | 11
14 | Cc1nc(N2CCC2CN)nc(C(N)=O)c1-c1cccc(Cl)c1Cl (centres unmarked) [Compound 46, 2-(2-Aminomethyl-azetidin-1-yl)-5-(2,3-dichloro-phenyl)-6-methyl-pyrimidine-4-carboxylic acid amide] | 5.5
15 | NC(=O)c1nc(NC2CCOC3(C2)CN2CCC3CC2)nc(N)c1-c1cccc(Cl)c1Cl (centres unmarked) [Compound 52, 6-amino-2-({4-azaspiro[bicyclo[2.2.2]octane-2,2′-oxan]-4′-yl}amino)-5-(2,3-dichlorophenyl)pyrimidine-4-carboxamide] | > 10
16 | NCC1(O)CN(c2nc(N)c(-c3cccc(Cl)c3Cl)c(C(N)=O)n2)C1 [Compound 54, 6-amino-2-[3-(aminomethyl)-3-hydroxyazetidin-1-yl]-5-(2,3-dichlorophenyl)-pyrimidine-4-carboxamide] | 7.7
17 | Cc1nc(N2CC3CN(C)CC3C2)nc(C(N)=O)c1-c1cccc(Cl)c1Cl (centres unmarked) [Compound 56, 5-(2,3-Dichloro-phenyl)-6-methyl-2-(5-methyl-hexahydro-pyrrolo[3,4-c]pyrrol-2-yl)-pyrimidine-4-carboxylic acid amide] | 0.96
18 | CC1(N)CCN(c2ncc(-c3cccc4[nH]cnc34)c(C(N)=O)n2)CC1 [Compound 60, 2-(4-Amino-4-methyl-piperidin-1-yl)-5-(1H-benzoimidazol-4-yl)-pyrimidine-4-carboxylic acid amide] | > 10
19 | CC1(N)CCN(c2ncc(-c3cccc4nonc34)c(C(N)=O)n2)CC1 [Compound 61, 2-(4-Amino-4-methyl-piperidin-1-yl)-5-benzo[1,2,5]-oxadiazol-4-yl-pyrimidine-4-carboxylic acid amide] | > 10
20 | CC1(N)CCN(c2nc(N)c(-c3ccc4cn[nH]c4c3Cl)c(C(N)=O)n2)CC1 [Compound 62, 6-Amino-2-(4-amino-4-methyl-piperidin-1-yl)-5-(7-chloro-1H-indazol-6-yl)-pyrimidine-4-carboxylic acid amide] | > 10
21 | NC(=O)c1nc(N[C@@H]2CCCC[C@@H]2N)nc(N)c1-c1cccc(Cl)c1Cl [Compound 65, 6-amino-2-{[(1R,2S)-2-aminocyclohexyl]amino}-5-(2,3-dichlorophenyl)-pyrimidine-4-carboxamide] | 3.7
22 | Cc1nc(N2CCC3CCC(C2)N3)nc(C(N)=O)c1-c1cccc(Cl)c1Cl (centres unmarked) [Compound 68, 2-(3,9-Diaza-bicyclo[4.2.1]-non-3-yl)-5-(2,3-dichloro-phenyl)-6-methyl-pyrimidine-4-carboxylic acid amide] | 6.2

Second part, the molecule after the results:

Row | IC50 [µM] | SMILES
23 | 2.7 | NC(=O)c1nc(N2CC3CCCC(C2)C3N)nc(N)c1-c1cccc(Cl)c1Cl (centres unmarked) [Compound 6, 6-amino-2-{9-amino-3-azabicyclo[3.3.1]nonan-3-yl}-5-(2,3-dichlorophenyl)pyrimidine-4-carboxamide]
24 | > 10 | NC(=O)c1nc(N2C[C@H]3CCCCC[C@@H](C2)[C@@H]3N)nc(N)c1-c1cccc(Cl)c1Cl [Compound 13, 6-amino-5-(2,3-dichlorophenyl)-2-[(1R,7S,11s)-11-amino-9-azabicyclo[5.3.1]undecan-9-yl]pyrimidine-4-carboxamide]
25 | 4.7 | NCC1CN(c2nc(N)c(-c3cccc(Cl)c3Cl)c(C(N)=O)n2)CC12CCOCC2 (centres unmarked) [Compound 23, 6-amino-2-[4-(aminomethyl)-8-oxa-2-azaspiro[4.5]decan-2-yl]-5-(2,3-dichlorophenyl)pyrimidine-4-carboxamide]
26 | > 10 | CC1(N)CCN(c2nc(O)c(-c3cccc(F)c3)c(C(N)=O)n2)CC1 [Compound 25, 2-(4-amino-4-methylpiperidin-1-yl)-5-(3-fluorophenyl)-6-hydroxypyrimidine-4-carboxamide hydrochloride]
27 | 7.6 | NC(=O)c1nc(N2CCC3(CC2)CC(N)CCO3)nc(N)c1-c1cccc(Cl)c1Cl (centres unmarked) [Compound 38, 6-amino-2-{4-amino-1-oxa-9-azaspiro[5.5]undecan-9-yl}-5-(2,3-dichlorophenyl)pyrimidine-4-carboxamide]
28 | 3.9 | NCC1CC2(CCN(c3nc(N)c(-c4cccc(Cl)c4Cl)c(C(N)=O)n3)CC2)CO1 (centres unmarked) [Compound 40, 6-amino-2-[3-(aminomethyl)-2-oxa-8-azaspiro[4.5]decan-8-yl]-5-(2,3-dichlorophenyl)pyrimidine-4-carboxamide]
29 | 4.8 | Cc1nc(N2CC3CCC(N)C3C2)nc(C(N)=O)c1-c1cccc(Cl)c1Cl (centres unmarked) [Compound 42, 2-(4-Amino-hexahydro-cyclopenta[c]pyrrol-2-yl)-5-(2,3-dichloro-phenyl)-6-methyl-pyrimidine-4-carboxylic acid amide]
30 | 3.1 | Cc1nc(NC2CCCC2CN)nc(C(N)=O)c1-c1cccc(Cl)c1Cl (centres unmarked) [Compound 43, 2-(2-Aminomethyl-cyclopentylamino)-5-(2,3-dichloro-phenyl)-6-methyl-pyrimidine-4-carboxylic acid amide]
31 | 10 | NC(=O)c1nc(N2CC3CCCC(N)C3C2)nc(N)c1-c1cccc(Cl)c1Cl (centres unmarked) [Compound 50, 6-amino-2-(4-amino-octahydro-1H-isoindol-2-yl)-5-(2,3-dichlorophenyl)pyrimidine-4-carboxamide]
32 | 1.5 | NC[C@@H]1CN(c2nc(N)c(-c3cccc(Cl)c3Cl)c(C(N)=O)n2)C[C@H]1c1ccccc1 [Compound 51, 6-amino-2-[(3R,4R)-3-(aminomethyl)-4-phenylpyrrolidin-1-yl]-5-(2,3-dichlorophenyl)pyrimidine-4-carboxamide]
33 | 1.7 | CC1(CN)CN(c2nc(N)c(-c3cccc(Cl)c3Cl)c(C(N)=O)n2)C1 [Compound 55, 6-amino-2-[3-(aminomethyl)-3-methylazetidin-1-yl]-5-(2,3-dichlorophenyl)pyrimidine-4-carboxamide]
34 | > 10 | Cc1nc(N2CC(N)(CO)C2)nc(C(N)=O)c1-c1cccc(Cl)c1Cl [Compound 57, 2-(3-Amino-3-hydroxymethyl-azetidin-1-yl)-5-(2,3-dichloro-phenyl)-6-methyl-pyrimidine-4-carboxylic acid amide]
35 | 4.4 | Cc1nc(N2CCC3(CC3N)C2)nc(C(N)=O)c1-c1cccc(Cl)c1Cl (centres unmarked) [Compound 58, 2-(1-Amino-5-aza-spiro[2.4]hept-5-yl)-5-(2,3-dichloro-phenyl)-6-methyl-pyrimidine-4-carboxylic acid amide]
